# Laboratory results published in PMC10819767, “An ADAM10 Exosite Inhibitor Is Efficacious in an In Vivo Collagen-Induced Arthritis Model” (Pharmaceuticals, 2024).
# “Also recorded” adds a separate entry of the source.
# Legend:
# [1] = system: cardiac ion channel hERG; parameters: method as in PubChem AID 1511; settings: ref PubChem AID 1511, cited from earlier work
# [2] = system: multiple cell lines; parameters: method as in PubChem Assay IDs 1794763-1794787, 19, 20; settings: 10 µM and up to 100 µM in some cases; ref PubChem Assay IDs 1794763-1794787, 19, 20; cited from earlier work
# [3] = system: adrenergic (ADRB2); parameters: method as in PMID 34817776; settings: cited from earlier work
# [4] = system: OPRM1; parameters: method as in PMID 34817776; settings: cited from earlier work
# [5] = biological target: DNA polymerase β; parameters: method as in PubChem AID 485314; settings: ref PubChem AID 485314; cited from earlier work
# [6] = Body weight and clinical signs of distress during CIA study; assay type: in vivo; settings: 10, 30, 50 mg/kg oral for 28 days
# Excerpt: Mice were weighed and observed every day, and notes were made on the signs of distress.
# [7] = system: TNFα; assay: RA serum marker ELISA, TNFα, CIA mice; assay type: in vivo, C57 BL/6 mice
# Procedure: (§1) The sample size for therapeutic evaluation was calculated using power analysis based on experimental data from similar studies. In a two-sided test and setting the α value at 0.05 and desired power at 0.95, the sample size turned out to be 5 per group. We also expected deaths during the experiments; therefore, we used the formula Nt = N/1-q, where Nt is the number of mice initially used, N is the number required at the end of the study, and q is the proportion of attrition, which is generally 10%. Thus, at the end of the study period, we expected to have data from at least 6 mice per group, which is enough to attain statistical significance if it exists. Data were analyzed using a one-way ANOVA followed by Dunnett’s test compared with the vehicle control. At the end of the study, the mice were anesthetized and sacrificed using CO2 euthanasia. The hind paws of the mice were subjected to a histopathological examination, and the serum was analyzed for CRP, TNF-α, IL-6, and IL-10, as described in the below sections.
# (§2) RA serum marker analysis. Blood was collected from the tail vein, and 100 µL was used for the assays. All assays were conducted using the manufacturer’s instructions for the respective assay kits. The following assay kits were purchased: Mouse TNF-α GENLISA™ ELISA (Krishgen BioSystems cat#KB2145, Mumbai, India), Mouse IL-10 GENLISA™ ELISA (Krishgen BioSystems cat#KB2072), Mouse hsC-Reactive Protein, hs-CRP GENLISA™ ELISA (Krishgen BioSystems cat#KLM0318), Mouse IL-6 GENLISA™ ELISA (Krishgen BioSystems cat#KB2068).
# [8] = system: PBMCs and neutrophils; parameters: method as in PMID 28442704; settings: cited from earlier work
# [9] = system: T-cell receptors; parameters: method as in PubChem bioassay 504894; settings: ref PubChem bioassay 504894; cited from earlier work
# [10] = system: IL-6; assay: RA serum marker ELISA, IL-6, CIA mice; assay type: in vivo, C57 BL/6 mice
# Procedure: as §1, §2
# [11] = system: C-reactive protein (CRP); assay: RA serum marker ELISA, CRP, CIA mice; assay type: in vivo, C57 BL/6 mice
# Procedure: as §1, §2
# [12] = system: articular joints affected by RA; assay: Histopathology (H & E) of arthritic joint, CIA mice; assay type: in vivo, C57 BL/6 mice
# Procedure: as §1, with “sections. Histology. Limbs from euthanized animals were preserved in buffered formalin, decalcified, embedded, sectioned, and stained with hematoxylin and eosin (H & E). Microscopic images were acquired using the Lx 400 microscope (Labomed, Fremont, CA, USA).” for “sections.”
# [13] = system: collagen-induced arthritis (CIA) model; assay: CIA mouse model: clinical arthritis score and paw swelling; assay type: in vivo, C57 BL/6 mice; settings: 10, 30, 50 mg/kg/day; days 1, 14, 21, 28
# [14] = system: OPRK1; parameters: method as in PMID 34817776; settings: cited from earlier work
# [15] = CID 3117694 50 mg/kg/day, indomethacin 2.5 mg/kg
# [16] = all tested doses (10, 30, 50 mg/kg), vs vehicle control
smiles,measurement,setting,value
COc1cccc(C(=O)NNC(=O)C(=O)Nc2ccc(C)c(Cl)c2)c1 [CID 3117694],effect on hERG with pro-arrhythmic agents (in words),[1]; no EC50 value reported,cardioprotective
same,hERG inhibition (in words),[1],not an hERG inhibitor
same,effect on cellular viability,[2],no effect
same,activity against ADRB2,[3],inactive
same,activity against OPRM1,[4],inactive
same,IC50,[5],79 µM
same,body weight vs vehicle control,[6],no significant differences in body weight
same,clinical signs of distress,[6],no clinical signs of distress
same,TNFα blood level vs healthy control,[7]; [15],decreased the markers to the level of the healthy control
same,concentration of TNFα in the blood of arthritic mice,[7]; [16],lowers
same,recruitment of PBMCs and neutrophils,[8],can inhibit
same,activity in assay for activators of T-cell receptors,[9],inactivity
same,IL-6 blood level vs healthy control,[10]; [15],decreased the markers to the level of the healthy control
same,concentration of IL-6 in the blood of arthritic mice,[10]; [16],lowers
same,concentration of CRP in the blood of arthritic mice,"[11]; 30 and 50 mg/kg, vs vehicle control",lowers
same,CRP blood level vs healthy control,[11]; [15],decreased the markers to the level of the healthy control
same,histopathological findings (in words),[12]; 10 mg/kg/day,did not have a pronounced effect on RA markers
same,histopathological findings (in words),[12]; 30 mg/kg/day,reduced erosion but not the rest of the symptoms
same,histopathological findings (in words),[12]; 50 mg/kg/day,significant reduction in RA hallmarks in most samples; also recorded: healthy bone and cartilage similar to the healthy controls
same,paw swelling (in words),[13],time- and dose-dependently decrease paw swelling
same,activity against OPRK1,[14],inactive
